Data: article PMC4129108, “The natural triterpene 3β,6β,16β-trihydroxy-lup-20(29)-ene obtained from the flowers of Combretum leprosum induces apoptosis in MCF-7 breast cancer cells” (BMC Complementary and Alternative Medicine, 2014)
Converted amounts (≈) assume the structure as drawn.

Key:
[1] = tested on: intracellular ROS in MCF-7 cells; assay: ROS detection by flow cytometry (H2DCFDA); type: cell-based, human
Procedure: (§1) Cells (2 × 10^5 cells/mL) were seeded on 6-well tissue culture plates, and grown for 1 day up to 70–80% confluence before treatment with the test substance. The TTHL was added to medium with FBS to obtain the different concentrations, and cells were treated at 37°C for 24 h in humidified atmosphere containing 5% CO2.
Levels of intracellular ROS were estimated following treatment with TTHL using 2′,7′-dichlorofluorescein diacetate (H2DCFDA, Sigma) as a fluorescent probe. Detection of oxidative stress was done by incubating the cells with 20 μM of H2DCFDA for 20 min at 37°C. Cells were then detached by trypsinization and washed twice with PBS. After filtration through cell strainer cap, cells were analyzed using a FACS Calibur flow cytometer with CellQuest software in accordance with Bass et al.. A total of 10,000 events were measured per sample. DCF fluorescence intensity was shown in arbitrary units.

[2] = tested on: HCT116 cell (colorectal carcinoma); assay: XTT cell viability assay, HCT116; type: cell-based, human; details: for IC50: Homo sapiens, HCT-116, XTT
Procedure: (§2) The human cell lines MCF-7 (breast adenocarcinoma), HepG2 (hepatoma), T24 (bladder cancer), CACO-2 (colorectal adenocarcinoma) and MRC5 (lung normal fibroblast) were obtained from the Rio de Janeiro Cell Bank (Rio de Janeiro, RJ, Brazil). The HCT116 cell (colorectal carcinoma), and HT29 cell (colorectal adenocarcinoma) were kindly provided by Dr. Annette K. Larsen (Institut National de la Santé et de la Recherche Médicale - INSERM, Paris, França). All cell lines except MCF-7 were grown in DMEM supplemented with 10% or 20% (for CACO-2) FBS, 100 units.mL^-1 penicillin and 100 μg.mL^-1 streptomycin at 37°C in a humidified atmosphere of 5% CO2. MCF-7 cells were maintained in RPMI-1640 supplemented with 20% FBS at the same conditions described above.
(§3) The cytotoxic potential of the TTHL was evaluated by the XTT assay in human tumor cell lines as well as in MRC5 normal fibroblasts. Cells (1 × 10^4 cells) were seeded on 96-well plates in growth medium and incubated overnight. Afterwards, TTHL (0.5, 1.0, 2.5, 5.0, and 10 μg/mL) was added to each well and incubated for 24, 48, 72, and 120 h. Mitoxantrone, a cytostatic anthracenedione that intercalates in DNA and increases the incidence of double-strand breaks by stabilizing the cleavable complex of topoisomerase II and DNA, was used as positive control. At the end of each treatment, cell viability was assessed according to the manufacturer’s instructions. Briefly, after discarding the medium, 1 mL of XTT labeling mixture was added to the cells and incubated for 2 h at 37°C. Absorbance was measured with a SpectraMax reader (Bio-Rad, USA) at a test wavelength of 492 nm (A492) and a reference wavelength of 690 nm (A690). The final result corresponds to A492-A690. The absorbance of negative control cells was set as 100% viability, and the values for treated cells were calculated as a percentage of the control.
(§4) The IC20, IC50, and IC80 values and their 95% confidence intervals (CI 95%) were obtained by nonlinear regression using GraphPad Prism v5 program (Intuitive Software for Science, San Diego, CA, USA). Selective index (SI) was calculated by IC50 in MRC5 cells/IC50 in tumoral cells. All experiments were independently repeated at least three times, with triplicate samples for each treatment. Results are expressed as means ± standard deviation (SD). Data were analyzed by one-way analysis of variance (ANOVA), and means were compared using Tukey test, with P ≤ 0.05 considered as statistically significant.

[3] = tested on: S. cerevisiae EG118 (sod1Δ); assay: Yeast survival assay, EG118 (sod1Δ); type: cell-based, Saccharomyces cerevisiae; details: for survival (percentage in relation to negative control): STAT cells, 1 h in PBS 30°C
Procedure: (§5) Media, solutions and buffers were prepared according to Burke et al.. YPD medium (0.5% yeast extract, 2% peptone, 2% glucose) was used for routine growth. Synthetic medium SC (0.67% yeast nitrogen base, 0.1% ammonium sulfate, 2% glucose) supplemented with the appropriate amino acids and bases ([…]) was used for the detection of mutations.
(§6) Stationary phase (STAT) cultures were obtained by inoculation of a single colony into liquid YPD. We chose to work in the stationary phase of growth because this resembles most cells of multicellular organisms in important aspects: (i) most energy comes from mitochondrial respiration; (ii) the cells have left the active cell cycle and have entered the Go phase; and (iii) damage accumulates over time.
(§7) STAT cells (1 × 10^8 cells/mL) were exposed to TTHL (10–500 μg/mL) and incubated under growth conditions for 1 h in PBS at 30°C. Cells were then washed and treated with H2O2 (5 mM) in PBS for another hour. Suitable aliquots were plated in triplicate on solid YPD (2–3 days, 30°C) and colony-forming units were counted. Sensitivity was expressed as a percentage of survival in relation to the negative control (solvent).

[4] = tested on: cleaved caspase-9 in MCF-7 cells; assay: Quantification of cleaved caspase-9 by flow cytometric analysis; type: cell-based, human; details: MCF-7, 24 h
Procedure: as §1
After treatment, cells (1 × 10^6) were harvested, resuspended in 25 μL PBS and fixed with 4% formaldehyde. After permeabilization and blocking (0.2% Triton X-100 in PBS and 1% BSA), cells were incubated with anti-caspase-9 antibody (diluted 1:1000) for 1 h at room temperature, followed by incubation with anti-rabbit FITC secondary antibody (Uniscience) (diluted 1:1000) for 1 h at room temperature in the dark. A total of 10,000 events were analyzed per sample by FACS Calibur flow cytometer. Fluorescence intensity in arbitrary units was plotted in histograms; the mean fluorescence intensity was calculated using CellQuest software.

[5] = tested on: S. cerevisiae EG110 (sod2Δ); assay: Yeast survival assay, EG110 (sod2Δ); type: cell-based, Saccharomyces cerevisiae; details: for survival (percentage in relation to negative control): STAT cells, 1 h in PBS 30°C
Procedure: as §5, §6, §7

[6] = tested on: CACO-2 (colorectal adenocarcinoma); assay: XTT cell viability assay, CACO-2; type: cell-based, human; details: for IC50: Homo sapiens, XTT
Procedure: as §2, §3, §4

[7] = deficient in superoxide dismutase

## C=C(C)[C@@H]1CC[C@@]2(C)[C@H]1[C@H]1CC[C@@H]3[C@@]4(C)CC[C@H](O)C(C)(C)[C@@H]4[C@H](O)C[C@@]3(C)[C@]1(C)C[C@@H]2O [TTHL, 3β,6β,16β-trihydroxy-lup-20(29)-ene]
[1]; MCF-7, 24 h treatment at IC50
  increase in intracellular ROS production: 49%
[1]; MCF-7, 24 h treatment at IC80
  increase in intracellular ROS production: 64%
[2]; HCT116, 24 h treatment
  IC50: 7.05 ± 0.21 µg/mL (≈ 15.4 µM)
[2]; HCT116, 48 h treatment
  IC50: 5.87 ± 0.04 µg/mL (≈ 12.8 µM)
[2]; HCT116, 72 h treatment
  IC50: 5.2 ± 0.28 µg/mL (≈ 11.3 µM)
[2]; HCT116, 120 h treatment
  IC50: 4.5 ± 0.29 µg/mL (≈ 9.81 µM)
[2]; IC50 in MRC5 cells/IC50 in HCT116, 24 h
  Selectivity index (SI): 1 X
[2]; IC50 in MRC5 cells/IC50 in HCT116, 48 h
  Selectivity index (SI): 1 X
[2]; IC50 in MRC5 cells/IC50 in HCT116, 72 h
  Selectivity index (SI): 1 X
[2]; IC50 in MRC5 cells/IC50 in HCT116, 120 h
  Selectivity index (SI): 1.5 X
[3]; TTHL 10 μg/mL
  survival (percentage in relation to negative control): 92.60 ± 2.83%
[3]; TTHL 50 μg/mL
  survival (percentage in relation to negative control): 89.30 ± 0.85 %
[3]; TTHL 100 μg/mL
  survival (percentage in relation to negative control): 75.65 ± 4.60 %
[3]; TTHL 500 μg/mL
  survival (percentage in relation to negative control): 69.30 ± 3.68 %
[3]; [7]
  sensitivity of the strain to TTHL (in words): hypersensitive
[4]; TTHL at IC20
  levels of cleaved caspase-9: no significant changes
[4]; TTHL at IC50
  induction of cleaved caspase-9-labeled cells: increased induction of cleaved caspase-9-labeled cells
[4]; TTHL at IC80
  induction of cleaved caspase-9-labeled cells: increased induction of cleaved caspase-9-labeled cells
[5]; TTHL 10 μg/mL
  survival (percentage in relation to negative control): 83.20 ± 3.68 %
[5]; TTHL 50 μg/mL
  survival (percentage in relation to negative control): 72.90 ± 7.07 %
[5]; TTHL 100 μg/mL
  survival (percentage in relation to negative control): 62.25 ± 3.32 %
[5]; TTHL 500 μg/mL
  survival (percentage in relation to negative control): 56.65 ± 1.06 %
[5]; [7]
  sensitivity of the strain to TTHL (in words): hypersensitive
[6]; CACO-2, 24 h treatment
  IC50: 8.55 ± 0.35 µg/mL (≈ 18.6 µM)
[6]; CACO-2, 48 h treatment
  IC50: 7.9 ± 0.28 µg/mL (≈ 17.2 µM)
[6]; CACO-2, 72 h treatment
  IC50: 6.35 ± 0.35 µg/mL (≈ 13.8 µM)
[6]; CACO-2, 120 h treatment
  IC50: 5 ± 0.19 µg/mL (≈ 10.9 µM)
[6]; IC50 in MRC5 cells/IC50 in CACO-2, 24 h
  Selectivity index (SI): MR (MR: more resistant in tumoral cells)
[6]; IC50 in MRC5 cells/IC50 in CACO-2, 48 h
  Selectivity index (SI): MR (MR: more resistant in tumoral cells)
[6]; IC50 in MRC5 cells/IC50 in CACO-2, 72 h
  Selectivity index (SI): 1 X
[6]; IC50 in MRC5 cells/IC50 in CACO-2, 120 h
  Selectivity index (SI): 1 X
